Tests used:
rats = test: Histopathological examination of nostrils, nasal cavity and pharynx (local tolerability); assay type: in vivo; details: dose as high as 12.5 mg/kg in rats, intranasal
Description: Subsequent to the last blood sampling animals were sacrificed by induction of a deep anesthesia with isoflurane followed by rapid exsanguinations. Then both nostrils and nasal cavity including pharynx were collected from all animals and preserved in neutral buffered formaldehyde (4%) for histopathological examination. Afterwards, tissues for the histopathological investigation were trimmed and embedded in paraplast®. The slides were HE (hematoxylin and eosin)-stained and histopathologically examined.

SARS-Covid 2 virus = details: cited Monash lab experiments; cited from earlier work
[1] = Particle size distribution (PSD) by laser diffraction, Malvern Mastersizer 2000/3000; assay type: physicochemical
Method: The mean particle size distribution is preferably obtained by laser diffraction. In a laser diffraction measurement, a laser beam passes through a dispersed particulate sample and the angular variation in intensity of the scattered light is measured. Large particles scatter light at small angles relative to the laser beam and small particles scatter light at large angles. The angular scattering intensity data is then analyzed to calculate the size of the particles that created the scattering pattern using the Mie theory of light scattering. The particle size is reported as a volume equivalent sphere diameter. The folded optical design in the Mastersizer 3000 (from Malvern Panalytical), which was in particular used for the measurements, provides a particle size range from 10 nm up to 3.5 mm using a single optical measurement path. The Mastersizer 3000 uses a sequential combination of measurements with red and blue light sources to measure across the entire particle size range.
The pharmaceutically active agent is grinded in a mortar/pestle system to the appropriate particles size prior to its use. Afterwards the Particles Size Distribution (PSD) is measured using a Malvern Master Sizer 3000. The samples after grinding are stored in tightly closed brown glass bottles.
The pharmaceutically active agent is micronised to the desired particles size using a jet mill (e.g. from SpiraNo 100 from MCKO, Germany) and screw dosing system (e.g. ZD 9 from Three-Tec Ltd., Seon, Switzerland). The diameter of the injection nozzle is selected at about 6 mm, the milling gas pressure about 2 bar, the milling temperature is about 18° C. The duration of the process is about 5-10 minutes depending on the particle size of the non-micronised active agent. Afterwards the PSD is measured with a Malvern Master Sizer 3000. The samples after micronisation are stored in tightly closed brown glass bottles.
Afterwards the PSD is measured with a Malvern Master Sizer 3000. In addition, the Zetapotential, an index for the stability of the multiparticulate suspensions is measured using a Zeta Sizer (e.g. Nano ZS) from Malvern Instruments (Dynamic Laser diffraction).
In some embodiments, the PSD of the pharmaceutically active agent, provided for the preparation of its multiparticulate suspension according to procedure 1 and procedure 2 (grinded/micronised), was measured using a Malvern Mastersizer 2000 or 3000 (in water as dispersion medium, stirrer speed 1500 rpm, Mie presentation) to give the following results:
In some embodiments, the PSD of the pharmaceutically active agent in multiparticulate suspension prepared according to procedure 3 (wet ball milling with Delta Vita 1), procedure 4 (wet ball milling Getzmann/Frewitt), procedure 5 (bulk microsuspension) and procedure 6 (final product) was measured using a Malvern Mastersizer 2000 or 3000 (in water as dispersion medium, stirrer speed 1500 rpm, Mie presentation).

For ivermectin, the “tolerability of the active ingredient” value (rats) is given as “well tolerated” and the “activity against SARS-Covid 2 virus” value (SARS-Covid 2 virus) is given as “active”.
Work on ivermectin [05KB21.HM00155] yielded a D10 ([1]; API batch after grinding) of 2.02 μm, a D50 ([1]; API batch after grinding) of 6.89 μm and a D90 ([1]; API batch after grinding) of 32.0 μm.
With ivermectin [05KB21.HM00170-] the D10 ([1]; API batch after micronisation) was 0.97 μm, the D50 ([1]; API batch after micronisation) was 2.22 μm and the D90 ([1]; API batch after micronisation) was 4.35 μm.
